Laboratory results reported in patent publication US8383637B2, “2-amino-quinazoline derivatives useful as inhibitors of β-secretase (BACE)” (Jansssen Pharmaceutica N.V., priority 2004, dated 2013).
Where two headings read alike, the source gives them in different places.

Biological target: T1, β-secretase(BACE) (Homo sapiens, UniProt P56817)
T1 construct: purchased Panvera
Experiment: BACE FS1% Inhibition Assay
Type: biochemical
Details: FS1 substrate; for % Inhibition (FS) 10 μM: 10 μM test compound
Procedure: BACE FS1% Inhibition Assay The following reagents were used in this assay: sodium acetate, PEG8000 (Sigma), DMSO, HEPES, FS1 substrate [[…]] […] The FS1-substrate stock solution was prepared in DMSO as a 10 mg/mL solution. The FS1-substrate working solution was prepared by diluting the 10 mg/mL stock solution with substrate assay buffer to a final concentration of 300 μg/mL. The β-secretase (BACE) working solution was prepared by diluting a 0.83 mg/mL BACE stock solution with enzyme assay buffer to a final concentration of 4 μg/mL. Test compounds were dissolved in DMSO to 10 mM. […] The screening procedure for this assay was as follows: 15 μL of BACE working solution was pipetted into each well of a 96-well plate. To each well was then pipetted 2 μL of test compound at the selected concentration. Test compound and BACE were then mixed with a pipettor and incubated for 20 min at room temperature. To each well was then added 10 μL of the FS1 substrate working solution. The plates were then incubated for 1 hour at room temperature. […] The procedure for the blank was as follows. 15 μL of assay buffer was pipetted into each well to be used as a blank control. To each well was then added 2 μL of vehicle and 10 μL of FS1-substrate working solution. The plates were then incubated for 1 hour at room temperature. […] The procedure for the positive control was as follows: 15 μL of BACE working solution was pipetted into each well to be used as a positive control. To each well was then pipetted 2 μL of vehicle. Vehicle and BACE were then mixed with a pipettor and incubated for 20 min at room temperature. To each well was then added 10 μL of the FS1 substrate working solution. The plates were then incubated for 1 hour at room temperature. […] For test compounds, % inhibition was determined at each concentration as follows: [formula]

[1] = 0.3 μM test compound, read-out: % Inhibition (FS) 0.3 μM
[2] = 1 μM test compound, read-out: % Inhibition (FS) 1 μM
[3] = 3 μM test compound, read-out: % Inhibition (FS) 3 μM

T1 sequence (P56817 46-501): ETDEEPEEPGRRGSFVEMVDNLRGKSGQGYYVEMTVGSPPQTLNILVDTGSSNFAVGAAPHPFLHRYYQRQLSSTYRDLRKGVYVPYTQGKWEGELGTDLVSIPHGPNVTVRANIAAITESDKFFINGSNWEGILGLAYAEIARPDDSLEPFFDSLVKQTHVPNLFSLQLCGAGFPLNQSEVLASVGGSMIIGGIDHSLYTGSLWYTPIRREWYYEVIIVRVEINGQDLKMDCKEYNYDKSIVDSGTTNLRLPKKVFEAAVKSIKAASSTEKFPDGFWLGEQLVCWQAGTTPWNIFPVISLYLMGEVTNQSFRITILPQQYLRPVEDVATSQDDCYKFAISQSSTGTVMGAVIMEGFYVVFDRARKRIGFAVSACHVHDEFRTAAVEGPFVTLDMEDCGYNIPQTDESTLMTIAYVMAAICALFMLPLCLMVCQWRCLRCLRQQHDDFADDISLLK

Row | SMILES | % Inhibition (FS) 0.3 μM (0.3 μM test compound) [%] | % Inhibition (FS) 1 μM (1 μM test compound) [%] | % Inhibition (FS) 3 μM (3 μM test compound) [%] | also measured
1 | Cc1cccc(C)c1Oc1ccc2c(c1)CN(Cc1cccc(C(=O)N(C)C3CCCCC3)c1)C(N)=N2 [Compound 475] | <30 | <30 | <30 | –
2 | Cc1ccccc1-c1ccc2c(c1)CN(CCNC(=O)C(C)(C)C)C(N)=N2 [Compound 660] | 63 | 86 | 105 | –
3 | NC1=Nc2ccc(Oc3c(F)cccc3F)cc2CN1CCC(=O)NC1C2CC3CC(C2)CC1C3 (centres unmarked) [Compound 529] | <30 | <30 | 66 | –
4 | COC(=O)C1CCCC(N(C)C(=O)CCC(C2CCCCC2)N2Cc3cc(Oc4ccccc4)ccc3N=C2N)C1 (mixture of isomers) [Compound 777] | – | – | – | % Inhibition (FS) (0.3 μM test compound): 38%; % Inhibition (FS) (1 μM test compound): 97%; % Inhibition (FS) (3 μM test compound): 123%
5 | CC(C)Oc1ccccc1Oc1ccc2c(c1)CN(Cc1cccc(C(=O)N(C)C3CCCCC3)c1)C(N)=N2 [Compound 478] | <30 | <30 | 46 | –
6 | NC1=Nc2ccc(Oc3ccccc3)cc2CN1CC1CCN(C(=O)C2CCCCC2)CC1 [Compound 525] | <30 | <30 | 70 | –
7 | COc1ccccc1-c1ccc2c(c1)CN(CCNC(=O)C1CCOCC1)C(N)=N2 [Compound 697] | – | – | – | % Inhibition (FS) (0.3 μM test compound): <30%; % Inhibition (FS) (1 μM test compound): <30%; % Inhibition (FS) (3 μM test compound): 63%
8 | NC1=Nc2ccc(-c3ccccc3)cc2CN1CCNC(=O)C1CCC(C(F)(F)F)CC1 (centres unmarked) [Compound 701] | – | – | – | % Inhibition (FS) (0.3 μM test compound): <30%; % Inhibition (FS) (1 μM test compound): <30%; % Inhibition (FS) (3 μM test compound): 54%
9 | CCOc1cccc(Nc2ccc3c(c2)CN(Cc2cccc(C(=O)N(C)C4CCCCC4)c2)C(N)=N3)c1 [Compound 440] | <30 | 35 | 72 | –
10 | Cc1ccc(-c2ccc3c(c2)CN(CCNC(=O)C2CCCCC2)C(N)=N3)cc1 [Compound 628] | <30 | <30 | 32 | –
11 | NC1=Nc2ccc(Oc3ccccc3)cc2CN1Cc1cccc(CNC(=O)C2CCCCC2)c1 [Compound 306] | <30 | <30 | 46 | –
12 | CN(C(=O)CCC(C1CCCCC1)N1Cc2cc(Oc3ccccc3)ccc2N=C1N)C(COCc1ccccc1)C(=O)O (centres unmarked) [Compound 781] | – | – | – | % Inhibition (FS) (0.3 μM test compound): 106%; % Inhibition (FS) (1 μM test compound): 109%; % Inhibition (FS) (3 μM test compound): 121%
13 | NC1=Nc2ccc(Oc3ccccc3)cc2CN1Cc1cccc(C(=O)N2CCC3CCCCC3C2)c1 (centres unmarked) [Compound 193] | <30 | 34 | 67 | –
14 | NC1=Nc2ccc(Oc3ccccc3)cc2CN1C(CC(=O)NC1CC2CCC1C2)C1CCCCC1 (centres unmarked) [Compound 400, 3-(2-Amino-6-phenoxy-4H-quinazolin-3-yl)-N-bicyclo[2.2.1]hept-2-yl-3-cyclohexyl-propionamide] | – | – | – | inhibition at 0.3 µM [1]: < 30%; inhibition at 1 µM [2]: < 30%; inhibition at 3 µM [3]: 94%
15 | COc1ccc(Sc2ccc3c(c2)CN(Cc2cccc(C(=O)N(C)C4CCCCC4)c2)C(N)=N3)cc1 [Compound 410] | <30 | 39 | 50 | –
16 | NC1=Nc2ccc(-c3ccc4ccccc4c3)cc2CN1CCNC(=O)C12CC3CC(CC(C3)C1)C2 [Compound 665] | – | – | – | % Inhibition (FS) (0.3 μM test compound): 35%; % Inhibition (FS) (1 μM test compound): <30%; % Inhibition (FS) (3 μM test compound): <30%
17 | NC1=Nc2ccc(Oc3ccccc3)cc2CN1CC(NC(=O)C1CCCCC1)C1CCCCC1 (centres unmarked) [Compound 637] | <30 | <30 | 73 | –
18 | NC1=Nc2ccc(-c3cnc4ccccc4c3)cc2CN1CCNC(=O)C1CCC1 [Compound 670] | – | – | – | % Inhibition (FS) (0.3 μM test compound): <30%; % Inhibition (FS) (1 μM test compound): <30%; % Inhibition (FS) (3 μM test compound): 44%
19 | NC1=Nc2ccc(Oc3ccccc3)cc2CN1CCCNC(=O)C1CC1 [Compound 143] | – | – | <30 | % Inhibition (FS) 10 μM: 32%
20 | CCCC(CNC(=O)C12CC3CC(CC(C3)C1)C2)N1Cc2cc(Oc3ccccc3)ccc2N=C1N (centres unmarked) [Compound 602] | – | – | – | % Inhibition (FS) 0.3 μM (0.3 μM test compound, 0.3 µM): 78%; % Inhibition (FS) 1 μM (1 μM test compound, 1 µM): 113%; % Inhibition (FS) 3 μM (3 μM test compound, 3 µM): 121%

Row | SMILES | % Inhibition (FS) 0.3 μM (0.3 μM test compound) [%] | % Inhibition (FS) 1 μM (1 μM test compound) [%] | % Inhibition (FS) 3 μM (3 μM test compound) [%] | also measured
21 | CCCC=Cc1ccc2c(c1)CN(CCNC(=O)CC1CCCC1)C(N)=N2 [Compound 580] | <30 | <30 | <30 | –
22 | CC(C)(C)C(=O)NCCN1Cc2cc(-c3ccccc3Cl)ccc2N=C1N [Compound 653] | 46 | 82 | 101 | –
23 | CCCCCC1CC2(C(=O)NCCN3Cc4cc(Oc5ccccc5)ccc4N=C3N)CCC1CC2 (centres unmarked) [Compound 194] | <30 | 42 | 38 | –
24 | NC1=Nc2ccc(-c3cccc(CO)c3)cc2CN1CCNC(=O)Cc1ccccc1 [Compound 599] | <30 | <30 | 65 | –
25 | CC(C)(C)OC(=O)N1CCCCC(N2Cc3cc(Oc4ccccc4)ccc3N=C2N)C1 (centres unmarked) [Compound 510] | <30 | <30 | 37 | –
26 | CN(C(=O)c1ncoc1CN1Cc2cc(Oc3ccccc3)ccc2N=C1N)C1CCCCC1 [Compound 641] | <30 | <30 | 48 | –
27 | CCC[C@H](CNC(=O)CCC(C)C)N1Cc2cc(Oc3ccccc3)ccc2N=C1N [Compound 603] | 101 | 114 | 122 | –
28 | CC(C)CCOc1ccc2c(c1)CN(Cc1cccc(C(=O)N(C)C3CCCCC3)c1)C(N)=N2 [Compound 517, 3-[2-Amino-6-(3-methyl-butoxy)-4H-quinazolin-3-ylmethyl]-N-cyclohexyl-N-methyl-benzamide] | – | – | – | inhibition at 0.3 µM [1]: < 30%; inhibition at 1 µM [2]: < 30%; inhibition at 3 µM [3]: 40%
29 | NC1=Nc2ccc(Oc3ccccc3)cc2CN1Cc1cccc(C(=O)N2CCCCC2)c1 [Compound 443] | <30 | 39 | 67 | –
30 | CN(C(=O)c1cccc(C(CC2CCCCC2)N2Cc3cc(Oc4ccccc4)ccc3N=C2N)c1)C1CCCCC1 (centres unmarked) [Compound 310] | <30 | <30 | 57 | –
31 | COc1cccc(OC)c1Oc1ccc2c(c1)CN(CCC(=O)NC1C3CC4CC(C3)CC1C4)C(N)=N2 (centres unmarked) [Compound 465] | <30 | <30 | <30 | –
32 | CN(C)c1ccc(C(=O)NCCN2Cc3cc(Oc4ccccc4)ccc3N=C2N)cc1 [Compound 189] | <30 | <30 | <30 | –
33 | NC1=Nc2ccc(Oc3ccccc3)cc2CN1C1CCN(C(=O)C2CCCCC2)C1 (centres unmarked) [Compound 119] | – | – | 42 | % Inhibition (FS) 10 μM: 75%
34 | NC1=Nc2ccc(Oc3ccccc3)cc2CN1CCNC(=O)CCc1ccccc1 [Compound 155] | – | – | <30 | % Inhibition (FS) 10 μM: 49%
35 | CN(C(=O)c1cccc(CN2Cc3cc(Br)ccc3N=C2N)c1)C1CCCCC1 [Compound 802] | – | – | – | inhibition at 0.3 µM (0.3 μM test compound, read-out: % Inhibition (FS)): < 30%; inhibition at 1 µM (1 μM test compound, read-out: % Inhibition (FS)): < 30%; inhibition at 3 µM (3 μM test compound, read-out: % Inhibition (FS)): 50%
36 | CN(C(=O)c1ccc(CN2Cc3cc(Oc4ccccc4)ccc3N=C2N)s1)C1CCCCC1 [Compound 503] | <30 | <30 | 90 | –
37 | CN(C(=O)CCC(C1CCCCC1)N1Cc2cc(Oc3ccccc3)ccc2N=C1N)C1CCC(O)CC1 (centres unmarked) [Compound 639] | <30 | <30 | 48 | –
38 | CN(Cc1cc(-c2ccccc2)on1)C(=O)CC[C@@H](C1CCCCC1)N1Cc2cc(-c3ccccc3F)ccc2N=C1N [Compound 724] | – | – | – | % Inhibition (FS) (0.3 μM test compound): 38%; % Inhibition (FS) (1 μM test compound): <30%; % Inhibition (FS) (3 μM test compound): 65%
39 | NC1=Nc2ccc(-c3ccccc3)cc2CN1CCNC(=O)Cc1ccccc1 [Compound 595] | 32 | 70 | 104 | –
40 | NC1=Nc2ccc(Oc3ccccc3)cc2CN1CCCNC(=O)C1CCC1 [Compound 144] | – | – | 39 | % Inhibition (FS) 10 μM: 59%
